From patent US8415469B2, “Compounds and methods for kinase modulation, and indications therefor” (Plexxikon Inc., priority 2005, dated 2013)
Blank lines part the entries; values can stand above or below the compound they belong to.

Tests used:
Assay type in all cases: biochemical
Ret = target: T1, Ret (Homo sapiens, UniProt P07949); assay: AlphaScreen kinase assay, Ret; conditions: read-out: IC50, activity toward kinase Ret
T1 construct: P1378.pET-SF BI-PTP RET H661-R1012 HIS; made in house
T1 sequence (P07949 with tags, fused parts or gaps): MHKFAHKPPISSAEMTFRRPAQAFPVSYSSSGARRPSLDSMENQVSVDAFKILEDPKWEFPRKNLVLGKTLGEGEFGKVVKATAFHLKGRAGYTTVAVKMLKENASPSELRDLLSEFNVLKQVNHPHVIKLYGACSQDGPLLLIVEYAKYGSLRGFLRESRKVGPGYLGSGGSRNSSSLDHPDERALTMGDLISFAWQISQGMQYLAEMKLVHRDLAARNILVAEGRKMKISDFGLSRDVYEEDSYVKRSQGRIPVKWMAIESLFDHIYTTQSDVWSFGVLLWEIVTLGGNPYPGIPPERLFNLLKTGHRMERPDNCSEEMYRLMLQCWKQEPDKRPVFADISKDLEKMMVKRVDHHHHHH

B-Raf V600E = target: T2, B-Raf V600E (Homo sapiens, UniProt P15056, V600E); assay: AlphaScreen kinase assay, B-Raf V600E; conditions: read-out: IC50, activity toward kinase B-Raf V600E
T2 construct: P4254. pFastBacBD-CDC37 BRAF D437-K722-X, V600E; His6 with pFastBac HT leader (TEV site) (N); made in house; host or cells: Sf9 (baculovirus; chaperone CDC37 co-expressed)
T2 sequence (P15056 with tags, fused parts or gaps V600E): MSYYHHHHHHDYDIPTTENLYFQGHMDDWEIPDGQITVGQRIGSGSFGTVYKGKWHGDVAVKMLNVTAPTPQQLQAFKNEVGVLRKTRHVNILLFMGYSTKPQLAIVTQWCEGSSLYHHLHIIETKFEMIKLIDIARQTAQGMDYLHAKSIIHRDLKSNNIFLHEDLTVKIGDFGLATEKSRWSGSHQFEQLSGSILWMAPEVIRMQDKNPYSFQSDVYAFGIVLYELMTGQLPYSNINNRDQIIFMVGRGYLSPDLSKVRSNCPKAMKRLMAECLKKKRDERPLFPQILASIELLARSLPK

B-Raf = target: T3, B-Raf (Homo sapiens, UniProt P15056); assay: AlphaScreen kinase assay, B-Raf; conditions: read-out: IC50, activity toward kinase B-Raf
T3 construct: purchased Upstate Biotechnology
T3 sequence (P15056 whole entry): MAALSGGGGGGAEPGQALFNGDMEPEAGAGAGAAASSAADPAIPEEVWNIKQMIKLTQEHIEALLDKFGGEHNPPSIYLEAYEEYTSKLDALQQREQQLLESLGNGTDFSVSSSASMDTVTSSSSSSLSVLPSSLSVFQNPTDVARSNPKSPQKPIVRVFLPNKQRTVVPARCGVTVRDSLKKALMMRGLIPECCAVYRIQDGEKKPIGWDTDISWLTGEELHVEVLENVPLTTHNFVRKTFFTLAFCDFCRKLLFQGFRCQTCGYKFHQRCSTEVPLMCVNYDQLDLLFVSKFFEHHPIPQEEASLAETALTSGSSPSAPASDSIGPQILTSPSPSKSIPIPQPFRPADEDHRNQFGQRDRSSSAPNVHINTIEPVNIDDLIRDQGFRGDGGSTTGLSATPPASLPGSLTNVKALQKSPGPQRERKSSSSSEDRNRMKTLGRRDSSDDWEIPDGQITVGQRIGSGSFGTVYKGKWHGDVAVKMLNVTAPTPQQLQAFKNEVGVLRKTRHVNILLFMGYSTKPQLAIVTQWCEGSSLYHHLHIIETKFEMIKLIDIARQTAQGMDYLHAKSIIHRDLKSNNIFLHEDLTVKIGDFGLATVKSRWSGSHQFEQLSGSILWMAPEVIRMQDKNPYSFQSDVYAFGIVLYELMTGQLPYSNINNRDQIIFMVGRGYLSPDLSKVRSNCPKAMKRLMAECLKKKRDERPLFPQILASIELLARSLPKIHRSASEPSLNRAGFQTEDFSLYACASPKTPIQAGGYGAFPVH

Fms = target: T4, Fms (Homo sapiens, UniProt P07333); assay: AlphaScreen kinase assay, Fms; conditions: read-out: IC50, activity toward kinase Fms
T4 construct: purchased Upstate Biotechnology
T4 sequence (P07333 20-972): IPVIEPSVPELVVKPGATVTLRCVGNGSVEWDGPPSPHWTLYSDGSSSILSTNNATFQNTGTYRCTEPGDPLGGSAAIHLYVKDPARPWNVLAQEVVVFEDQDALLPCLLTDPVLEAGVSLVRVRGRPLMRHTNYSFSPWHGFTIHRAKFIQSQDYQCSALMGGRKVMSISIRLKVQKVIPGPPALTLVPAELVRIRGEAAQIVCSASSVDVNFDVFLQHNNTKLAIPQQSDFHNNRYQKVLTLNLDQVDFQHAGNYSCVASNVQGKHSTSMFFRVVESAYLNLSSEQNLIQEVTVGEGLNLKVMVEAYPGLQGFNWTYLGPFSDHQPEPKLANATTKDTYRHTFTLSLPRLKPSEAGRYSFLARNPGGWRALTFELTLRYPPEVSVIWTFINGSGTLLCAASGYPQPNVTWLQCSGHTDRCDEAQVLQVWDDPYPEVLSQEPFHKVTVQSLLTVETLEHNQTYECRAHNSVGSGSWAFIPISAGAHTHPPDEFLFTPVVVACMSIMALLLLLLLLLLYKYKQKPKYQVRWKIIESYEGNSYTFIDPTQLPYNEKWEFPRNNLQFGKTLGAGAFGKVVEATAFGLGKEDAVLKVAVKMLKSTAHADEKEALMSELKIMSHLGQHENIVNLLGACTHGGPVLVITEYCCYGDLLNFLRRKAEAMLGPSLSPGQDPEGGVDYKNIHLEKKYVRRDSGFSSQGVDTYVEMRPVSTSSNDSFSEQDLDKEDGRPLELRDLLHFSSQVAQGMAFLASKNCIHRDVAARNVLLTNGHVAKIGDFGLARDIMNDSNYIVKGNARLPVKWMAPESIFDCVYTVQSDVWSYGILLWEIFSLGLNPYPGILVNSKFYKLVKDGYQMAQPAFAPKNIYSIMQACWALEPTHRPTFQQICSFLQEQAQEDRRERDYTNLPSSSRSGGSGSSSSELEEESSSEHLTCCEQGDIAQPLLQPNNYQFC

Kit = target: T5, Kit (Homo sapiens, UniProt P10721); assay: AlphaScreen kinase assay, Kit; conditions: read-out: IC50, activity toward kinase Kit
T5 construct: P1332.N6 BI PTP KIT M552-K948-X COD; His6 (N); made in house; host or cells: E. coli (PTP1B co-expressed)
T5 sequence (P10721 with tags, fused parts or gaps): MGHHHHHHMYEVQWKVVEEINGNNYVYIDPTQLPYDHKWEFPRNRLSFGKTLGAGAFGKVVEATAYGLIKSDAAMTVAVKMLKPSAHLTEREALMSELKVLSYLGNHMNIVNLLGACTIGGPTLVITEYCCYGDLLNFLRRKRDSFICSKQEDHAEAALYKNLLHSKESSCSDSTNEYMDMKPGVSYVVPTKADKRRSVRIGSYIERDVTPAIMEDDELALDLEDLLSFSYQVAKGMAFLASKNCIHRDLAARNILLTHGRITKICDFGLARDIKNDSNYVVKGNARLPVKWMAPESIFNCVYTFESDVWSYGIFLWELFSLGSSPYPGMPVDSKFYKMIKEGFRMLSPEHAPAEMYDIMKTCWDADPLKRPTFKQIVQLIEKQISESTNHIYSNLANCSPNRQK

FGFR1 = target: T6, FGFR1 (Homo sapiens, UniProt P11362, C488A/C584S); assay: AlphaScreen kinase assay, FGFR1; conditions: read-out: IC50, activity toward kinase FGFR
T6 construct: P1351.pET N6 BI-PTP FGFR A458-E765-X C488A, C584S; made in house; host or cells: E. coli (PTP1B co-expressed)
T6 sequence (P11362 458-765 C488A/C584S): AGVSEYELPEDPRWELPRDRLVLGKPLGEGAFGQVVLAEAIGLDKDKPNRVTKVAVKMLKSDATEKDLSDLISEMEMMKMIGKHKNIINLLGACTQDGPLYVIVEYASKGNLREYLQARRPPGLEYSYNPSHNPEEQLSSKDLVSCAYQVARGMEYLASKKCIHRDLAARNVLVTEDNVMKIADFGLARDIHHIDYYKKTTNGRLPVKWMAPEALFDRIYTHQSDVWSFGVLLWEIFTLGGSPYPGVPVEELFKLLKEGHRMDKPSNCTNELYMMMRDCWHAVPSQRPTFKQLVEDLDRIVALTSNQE

SMILES: CC(=O)Nc1cccc(-c2ccnc3[nH]cc(C(=O)c4cc(C)on4)c23)c1 [Compound P-1085]
IC50 (Ret): ≤ 10 µM | IC50 (B-Raf V600E): ≤ 10 µM

SMILES: CC(=O)Nc1cccc(-c2ccnc3[nH]cc(C(=O)c4cc(F)ccc4C)c23)c1 [Compound P-1126]
IC50 (Ret): ≤ 10 µM

SMILES: Cc1ccc(F)cc1C(=O)c1c[nH]c2nccc(-c3cccnc3)c12 [Compound P-1121]
IC50 (Ret): ≤ 10 µM

SMILES: COc1ccc(F)c(C(=O)c2c[nH]c3ncc(Br)cc23)c1 [Compound P-0284]
IC50 (B-Raf): ≤ 10 µM | IC50 (Fms): ≤ 10 µM | IC50 (Kit): ≤ 10 µM | IC50 (B-Raf V600E): ≤ 10 µM | IC50 (FGFR1): ≤ 10 µM

SMILES: Fc1ccc(-c2c(CNCc3ccccc3)[nH]c3ncccc23)cc1 [Compound P-0517]
IC50 (Ret): ≤ 10 µM

SMILES: Cc1cc(C(=O)c2c[nH]c3nccc(-c4ccc(C(N)=O)cc4)c23)no1 [Compound P-1007]
IC50 (Ret): ≤ 10 µM | IC50 (B-Raf V600E): ≤ 10 µM

SMILES: CS(=O)(=O)Nc1ccc(F)c(C(=O)c2c[nH]c3ncccc23)c1 [Compound P-0881]
IC50 (Ret): ≤ 10 µM

SMILES: O=C(c1cccc(Cl)c1Cl)c1c[nH]c2nccc(-c3ccsc3)c12 [Compound P-0347]
IC50 (Ret): ≤ 10 µM | IC50 (B-Raf V600E): ≤ 10 µM

SMILES: Cc1ccc(F)cc1C(=O)c1c[nH]c2nccc(-c3cccc(S(C)(=O)=O)c3)c12 [Compound P-1129]
IC50 (Ret): ≤ 10 µM

SMILES: Cc1cc(C(=O)c2c[nH]c3nccc(-c4ccc(Cl)cc4)c23)no1 [Compound P-1178]
IC50 (Ret): ≤ 10 µM

SMILES: Cc1cc(C(=O)c2c[nH]c3ncc(-c4cccc(/C=C/C(=O)O)c4)cc23)no1 [Compound P-1072]
IC50 (Ret): ≤ 10 µM

SMILES: Cc1ccc(F)cc1C(=O)c1c[nH]c2nccc(-c3ccc(Cl)cc3)c12 [Compound P-1133]
IC50 (Ret): ≤ 10 µM

SMILES: O=S(=O)(NCc1c[nH]c2ncccc12)c1cc(Br)cc(Cl)n1 [Compound P-0726]
IC50 (Ret): ≤ 10 µM

SMILES: CS(=O)(=O)Nc1cccc(-c2ccnc3[nH]cc(C(=O)c4ccc(Cl)cc4)c23)c1 [Compound P-0678]
IC50 (Ret): ≤ 10 µM

SMILES: Cc1cc(C(=O)c2c[nH]c3nccc(-c4cccc(C(N)=O)c4)c23)no1 [Compound P-1036]
IC50 (Ret): ≤ 10 µM

SMILES: CC(=O)Nc1cccc(-c2ccnc3[nH]cc(C(=O)c4ccc(Cl)cc4)c23)c1 [Compound P-1075]
IC50 (Ret): ≤ 10 µM

SMILES: Cc1c(Cl)cc(F)cc1S(=O)(=O)NCc1cc2cccnc2[nH]1 [Compound P-0533]
IC50 (Ret): ≤ 10 µM

SMILES: O=S(=O)(NCc1c[nH]c2ncccc12)C(F)(F)F [Compound P-0412]
IC50 (Ret): ≤ 10 µM

SMILES: O=C(c1cccc(Cl)c1Cl)c1c[nH]c2nccc(-c3ccc(Cl)cc3)c12 [Compound P-1130]
IC50 (Ret): ≤ 10 µM

SMILES: Cc1ccc(F)cc1C(=O)c1c[nH]c2nccc(-c3cccc(N)c3)c12 [Compound P-1135]
IC50 (Ret): ≤ 10 µM

SMILES: COc1ccc(-c2ccnc3[nH]cc(C(=O)c4ccccc4F)c23)cn1 [Compound P-0245]
IC50 (Ret): ≤ 10 µM

SMILES: [O-][S+](c1ccccc1)c1c[nH]c2ncc(Br)cc12 (stereo not shown) [Compound P-1097]
IC50 (Ret): ≤ 10 µM

SMILES: Cc1cc(C(=O)c2c[nH]c3ncc(-c4cccc(/C=C/C(=O)O)c4)cc23)nn1C [Compound P-1137]
IC50 (Ret): ≤ 10 µM

SMILES: CS(=O)(=O)c1cccc(-c2ccnc3[nH]cc(C(=O)c4cccc(Cl)c4Cl)c23)c1 [Compound P-1134]
IC50 (Ret): ≤ 10 µM

SMILES: COc1ccc(-c2ccnc3[nH]cc(C(=O)c4ccccc4C)c23)cn1 [Compound P-0536]
IC50 (Ret): ≤ 10 µM

SMILES: Cc1cc(C(=O)c2c[nH]c3ncc(Br)cc23)no1 [Compound P-0608]
IC50 (Ret): ≤ 10 µM

SMILES: Fc1cnc(F)c(F)c1Cc1c[nH]c2ncc(-c3ccsc3)cc12 [Compound P-0596]
IC50 (Ret): ≤ 10 µM

SMILES: Cc1nc(-c2ccc(S(=O)(=O)NCc3c[nH]c4ncccc34)s2)cs1 [Compound P-0735]
IC50 (Ret): ≤ 10 µM

SMILES: Cc1ccc(F)cc1C(=O)c1c[nH]c2nccc(-c3cccc(/C=C/C(=O)O)c3)c12 [Compound P-0985]
IC50 (Ret): ≤ 10 µM

Now from value to compound:

IC50 (Ret): ≤ 10 µM
SMILES: Cc1ccc(F)cc1C(=O)c1c[nH]c2nccc(-c3ccsc3)c12 [Compound P-1189]

IC50 (Ret): ≤ 10 µM
SMILES: COc1cccc(C(=O)c2c[nH]c3nccc(-c4ccc(Cl)cc4)c23)c1 [Compound P-1191]

IC50 (Ret): ≤ 10 µM
SMILES: COc1ccc(-c2ccnc3[nH]cc(C(=O)c4cc(F)ccc4C)c23)cn1 [Compound P-1192]

IC50 (Ret): ≤ 10 µM
SMILES: Cc1ccccc1C(=O)c1c[nH]c2nccc(-c3cccc(S(C)(=O)=O)c3)c12 [Compound P-1200]

IC50 (Ret): ≤ 10 µM
SMILES: CS(=O)(=O)c1cccc(-c2ccnc3[nH]cc(C(=O)c4ccc(Cl)cc4)c23)c1 [Compound P-1198]

IC50 (Ret): ≤ 10 µM
SMILES: Cc1ccccc1C(=O)c1c[nH]c2nccc(-c3ccc(Cl)cc3)c12 [Compound P-1201]

IC50 (B-Raf): ≤ 10 µM | IC50 (Fms): ≤ 10 µM | IC50 (Kit): ≤ 10 µM | IC50 (B-Raf V600E): ≤ 10 µM
SMILES: CCCS(=O)(=O)Nc1ccc(F)c(C(=O)c2c[nH]c3ncc(-c4ccc(OCCOC)cc4)cc23)c1F [Compound P-1998, Propane-1-sulfonic acid (2,4-difluoro-3-{5-[4-(2-methoxy-ethoxy)-phenyl]-1H-pyrrolo[2,3-b]pyridine-3-carbonyl}-phenyl)-amide]

IC50 (B-Raf): ≤ 10 µM | IC50 (Fms): ≤ 10 µM | IC50 (Kit): ≤ 10 µM | IC50 (B-Raf V600E): ≤ 10 µM
SMILES: Cc1cccc(NC(=O)Nc2cccc(C(=O)c3c[nH]c4ncccc34)c2)c1 [Compound P-1719, 1-[3-(1H-Pyrrolo[2,3-b]pyridine-3-carbonyl)-phenyl]-3-m-tolyl-urea]

IC50 (Ret): ≤ 10 µM
SMILES: COc1cccc(C(=O)c2c[nH]c3nccc(-c4cccc(NS(C)(=O)=O)c4)c23)c1 [Compound P-1185]

IC50 (B-Raf): ≤ 10 µM | IC50 (Fms): ≤ 10 µM | IC50 (Kit): ≤ 10 µM | IC50 (B-Raf V600E): ≤ 10 µM
SMILES: Cn1cc(-c2cnc3[nH]cc(C(=O)c4c(F)ccc(NS(=O)(=O)c5cccc(F)c5)c4F)c3c2)cn1 [Compound P-1997, N-{2,4-Difluoro-3-[5-(1-methyl-1H-pyrazol-4-yl)-1H-pyrrolo[2,3-b]pyridine-3-carbonyl]-phenyl}-3-fluoro-benzenesulfonamide]

IC50 (B-Raf): ≤ 10 µM | IC50 (Fms): ≤ 10 µM | IC50 (Kit): ≤ 10 µM | IC50 (B-Raf V600E): ≤ 10 µM
SMILES: Cc1ccc(NC(=O)Nc2cccc(C(=O)c3c[nH]c4ncccc34)c2)cc1 [Compound P-1718, 1-[3-(1H-Pyrrolo[2,3-b]pyridine-3-carbonyl)-phenyl]-3-p-tolyl-urea]

IC50 (B-Raf): ≤ 10 µM | IC50 (Fms): ≤ 10 µM | IC50 (Kit): ≤ 10 µM | IC50 (B-Raf V600E): ≤ 10 µM
SMILES: COc1ccc(NC(=O)Nc2cccc(C(=O)c3c[nH]c4ncccc34)c2)cc1 [Compound P-1705, 1-(4-Methoxy-phenyl)-3-[3-(1H-pyrrolo[2,3-b]pyridine-3-carbonyl)-phenyl]-urea]

IC50 (Ret): ≤ 10 µM
SMILES: O=C(c1ccccc1)c1c[nH]c2ncc(-c3ccsc3)cc12 [Compound P-1193]

IC50 (B-Raf): ≤ 10 µM | IC50 (Fms): ≤ 10 µM | IC50 (Kit): ≤ 10 µM | IC50 (B-Raf V600E): ≤ 10 µM
SMILES: N#Cc1ccc(S(=O)(=O)Nc2ccc(F)c(C(=O)c3c[nH]c4ncc(Cl)cc34)c2F)cc1 [Compound P-1822, N-[3-(5-Chloro-1H-pyrrolo[2,3-b]pyridine-3-carbonyl)-2,4-difluoro-phenyl]-4-cyano-benzenesulfonamide]

IC50 (Ret): ≤ 10 µM
SMILES: Cc1cc(C(=O)c2c[nH]c3nccc(-c4ccc(Cl)cc4)c23)n(C)n1 [Compound P-1196]

IC50 (B-Raf): ≤ 10 µM | IC50 (Fms): ≤ 10 µM | IC50 (Kit): ≤ 10 µM | IC50 (B-Raf V600E): ≤ 10 µM
SMILES: Cn1cc(-c2cnc3[nH]cc(C(=O)c4c(F)ccc(NS(=O)(=O)c5ccc(C(F)(F)F)cc5)c4F)c3c2)cn1 [Compound P-1996, N-{2,4-Difluoro-3-[5-(1-methyl-1H-pyrazol-4-yl)-1H-pyrrolo[2,3-b]pyridine-3-carbonyl]-phenyl}-4-trifluoromethyl-benzenesulfonamide]

IC50 (B-Raf): ≤ 10 µM | IC50 (Fms): ≤ 10 µM | IC50 (Kit): ≤ 10 µM | IC50 (B-Raf V600E): ≤ 10 µM
SMILES: O=C(c1c(F)ccc(NS(=O)(=O)c2ccc(F)cc2)c1F)c1c[nH]c2ncc(Cl)cc12 [Compound P-1840, N-[3-(5-Chloro-1H-pyrrolo[2,3-b]pyridine-3-carbonyl)-2,4-difluoro-phenyl]-4-fluoro-benzenesulfonamide]

IC50 (B-Raf): ≤ 10 µM | IC50 (Fms): ≤ 10 µM | IC50 (Kit): ≤ 10 µM | IC50 (B-Raf V600E): ≤ 10 µM
SMILES: O=C(c1c(F)ccc(NS(=O)(=O)c2ccsc2)c1F)c1c[nH]c2ncc(Br)cc12 [Compound P-1798, Thiophene-3-sulfonic acid [3-(5-bromo-1H-pyrrolo[2,3-b]pyridine-3-carbonyl)-2,4-difluoro-phenyl]-amide]

IC50 (B-Raf): ≤ 10 µM | IC50 (Fms): ≤ 10 µM | IC50 (Kit): ≤ 10 µM | IC50 (B-Raf V600E): ≤ 10 µM
SMILES: CCCS(=O)(=O)Nc1ccc(F)c(C(=O)c2c[nH]c3ncc(-c4cc(C)c(C#N)c(C)c4)cc23)c1F [Compound P-1980, Propane-1-sulfonic acid {3-[5-(4-cyano-3,5-dimethyl-phenyl)-1H-pyrrolo[2,3-b]pyridine-3-carbonyl]-2,4-difluoro-phenyl}-amide]
